These results are taken from patent publication US20240032530A1, “BLOOD SAMPLER CONTAINING ANTI-PLATELET AGENT AND WATER-SOLUBLE MATRIX MATERIAL” (Radiometer Medical ApS, priority 2020, published 2024).

This assay has as its system platelets (PLT) in whole blood. The assay can be described thus: Whole blood stability: PLT concentration on Sysmex XN-9000 hematology analyzer. The class given is cell-based, healthy volunteers. The settings on record: FIG. 8; formulated with PVP (Mw 10′000)/Tris matrix, 1 μM in whole blood, with Hep brick or LiHep tube, analyzed within 6 hours, three donors. On the procedure:
For storage stability and whole blood stabilization testing, the tubes were sprayed with 10 μL each of the mixture (D) using an ExactaCoat from Sono-Tek for ultrasonic spraying. And tubes were evacuated after spraying in order to allow filling of 3 mL whole blood during blood drawing via venipuncture.
Tubes with sprayed anti-platelet agents Iloprost, Beraprost sodium and Treprostinil each formulated with a PVP (Mw 10′000)/Tris matrix were prepared by ultrasonic spraying as described above. Spraying was done into either 1) tubes with no additive and after spraying, a heparinized filter paper brick (Hep brick) was added to the tube; or 2) spraying was conducted into commercial Lithium Heparin tubes (LiHep). The formulations were prepared to achieve a final anti-platelet agent concentration of 1 μM in whole blood. After preparation, tubes were evacuated and lids closed in order to allow drawing of correct whole blood volume during venipuncture. Blood from three different healthy volunteers were drawn into prepared blood collection tubes and reference standard EDTA and Lithium Heparin (LiHep) tubes. Whole blood samples were analyzed with a Sysmex XN-9000 hematology analyzer within 6 hours after blood sample drawing.
The Y-axis is the normalized PLT concentration relative to the EDTA sample.

On to `CCCCC[C@H](O)CC[C@@H]1[C@H]2Cc3cccc(OCC(=O)O)c3C[C@H]2C[C@H]1O` [Treprostinil], for which the “anti-platelet activity (normalized PLT concentration relative to the EDTA sample)” value is reported as “as high as that of EDTA”.

Take `CC#CCC(C)[C@H](O)/C=C/[C@@H]1[C@H]2C/C(=C/CCCC(=O)O)C[C@H]2C[C@H]1O` (stereo partly drawn) [Iloprost, iloprost]: the “anti-platelet activity (normalized PLT concentration relative to the EDTA sample)” value is listed as “as high as that of EDTA”.

As to `CC#CCC(C)[C@H](O)/C=C/[C@@H]1[C@H]2c3cccc(CCCC(=O)O)c3O[C@H]2C[C@H]1O` (mixture of isomers) [Beraprost, Beraprost sodium], the “anti-platelet activity (normalized PLT concentration relative to the EDTA sample)” value was “as high as that of EDTA”.
